“Also recorded” adds a separate entry of the source.
Experiments:
[1] = test system: tyrosine amino transferase (TAT); test: Quantitation of endogenous tyrosine amino transferase (TAT) in the HEPG2 liver cell line; type: cell-based, human; settings: HEPG2, 1 μM; p=0.014, two tailed t-test
Source text: The HEP G2 cell line (ECACC: 85011430) is derived from human liver epithelial cells from a well differentiated hepatocellular carcinoma. This cell line has functional endogenous GR and is stimulated by GR activation to produce tyrosine amino transferase.
In this method a colourimetric approach is used to quantitate TAT activity. The TAT enzyme catalyses the following reaction: L-tyrosine+2-oxoglutarate⇄4-hydroxyphenylpyruvate (pHPP)+L-glutamate
This reaction also requires pyridoxal phosphate (PLP) as a co-factor.
Strong alkali conditions can then be used to convert pHPP to p-hydroxybenzaldehyde (pHBA) and oxalate. The amount of pHBA can then be assessed by measuring its absorbance at 331 nm (extinction coefficient 19,900 M^−1cm^−1) this figure is then assumed to be directly proportional to TAT activity. HEPG2 cells were cultivated till confluent on a 10 cm plate (˜10^7 cells). These cells were then scraped off and suspended in 500 μl of ice cold 0.14M KCl. The cells were lysed by 3 cycles of 10 second burst sonication at full power (50 W, 20 kHz Sonicator; Jencons, Leighton Buzzard, UK). The cells were kept on ice between each burst. […]
(§1) For each reaction a control reaction was set up without the ketoglutarate. […] The samples were incubated at room temperature for a further 30 mins and then the absorbance of each sample was assessed at 331 nm on a spectrophotometer (Ultrospec III, Pharmacia).

[2] = target: T1, glucocorticoid receptor (Homo sapiens, UniProt P04150); test: Selectivity for transrepression over transactivation in vitro; type: cell-based; parameters: expressed in transfected cells; host or cells: COS 7 (African green monkey kidney, deficient in endogenous GR)
T1 sequence (P04150 1-777): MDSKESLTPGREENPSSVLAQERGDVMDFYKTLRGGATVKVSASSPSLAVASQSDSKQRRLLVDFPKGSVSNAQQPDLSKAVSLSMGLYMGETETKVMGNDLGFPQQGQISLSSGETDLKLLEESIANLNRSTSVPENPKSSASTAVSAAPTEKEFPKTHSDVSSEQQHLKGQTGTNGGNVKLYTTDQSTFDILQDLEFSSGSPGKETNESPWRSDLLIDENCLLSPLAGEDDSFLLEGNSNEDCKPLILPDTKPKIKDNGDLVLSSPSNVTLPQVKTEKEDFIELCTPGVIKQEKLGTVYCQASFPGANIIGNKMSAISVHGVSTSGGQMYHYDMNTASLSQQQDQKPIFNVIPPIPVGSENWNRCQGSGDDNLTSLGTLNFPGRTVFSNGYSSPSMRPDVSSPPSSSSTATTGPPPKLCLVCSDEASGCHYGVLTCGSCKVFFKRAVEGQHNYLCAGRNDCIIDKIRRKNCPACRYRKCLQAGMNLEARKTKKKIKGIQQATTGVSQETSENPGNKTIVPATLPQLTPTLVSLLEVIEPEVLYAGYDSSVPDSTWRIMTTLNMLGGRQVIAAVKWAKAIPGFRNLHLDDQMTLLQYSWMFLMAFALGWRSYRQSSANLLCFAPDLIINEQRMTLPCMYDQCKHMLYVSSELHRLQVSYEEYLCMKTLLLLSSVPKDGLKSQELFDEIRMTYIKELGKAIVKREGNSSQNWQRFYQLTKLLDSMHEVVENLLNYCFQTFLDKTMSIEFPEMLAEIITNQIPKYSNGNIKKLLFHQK

[3] = test system: tyrosine amino transferase (TAT); test: Quantitation of tyrosine amino transferase (TAT) in the livers of air pouch mice; type: in vivo; settings: 3 μg i.p., FIG. 22
Procedure: At time 0, mice received either 0.5 ml of zymosan (1 mg) (group A, B, C) injected locally into the air-pouch. Group D and E were left untreated at this time-point. At 4 h post-zymosan the animals were placed in CO2. Air-pouches were then washed with 2 ml of PBS containing 3 mM EDTA, and livers were recovered and snap frozen for later analysis.
Quantitation of Tyrosine Amino Transferase (TAT) Protein in the Livers: In this method a colourimetric approach is used to quantitate TAT activity. The TAT enzyme catalyses the following reaction: L-tyrosine+2-oxoglutarate⇄4-hydroxyphenylpyruvate (pHPP)+L-glutamate
This reaction also requires pyridoxal phosphate (PLP) as a co-factor. Strong alkali conditions can then be used to convert pHPP to p-hydroxybenzaldehyde (pHBA) and oxalate. The amount of pHBA can then be assessed by measuring its absorbance at 331 nm (extinction coefficient 19,900 M^−1cm^−1) this figure is then assumed to be directly proportional to TAT activity. Livers were homogenized and the cells were stored on ice. […]
as §1

[4] = target: T1, glucocorticoid receptor; test: Ligand binding competition assay, 3H Dexamethasone; parameters: Human HeLa 53 cells; endogenous in cells; settings: Human HeLa 53 cells, 2 hours @25° C.
Procedure: Binding of compound G to the glucocorticoid receptor was investigated using a standard competition assay. The conditions were as follows:
IC50 values were determined by a non-linear, least squares regression The KI values were calculated using the equation of Cheng and Prusoff using the observed IC50 of the test compound, the concentration of radioligand employed in the assay, and the historic values for the Kd for the ligand. The Hill coefficient (nH), defined as the slope of the competitive binding curve, was calculated.

[5] = test system: other members of the steroid receptor super family; test: Binding to other members of the steroid receptor super family

CCCNC(=O)C1(O)C(C)CC2C3CCC4=CC(=O)C=CC4(C)C3(F)C(O)CC21C (centres unmarked) [Compound G]
TAT activity compared to dexamethasone [1]: significant reduction in TAT activity
selectivity for transrepression over transactivation [2]: approximately 1000 fold
liver TAT level compared with vehicle control groups [3]: does not cause-induction; also recorded: did not reduce the level of TAT
binding to the glucocorticoid receptor, competition with 3H Dexamethasone [4]: bound to the glucocoticoid receptor; also recorded: right shifted when compared to dexamethasone; also recorded: less potent ligand than dexamethasone
binding to other members of the steroid receptor super family [5]: not to bind to other members of the steroid receptor super family

Reference: US7763596B2, “Selective glucocorticoid receptor agonists” (The University of Manchester, priority 2000, dated 2010)
